Results: paper PMC12029227, “In Vitro Evaluation of Novel Furo[3,2-c]coumarins as Cholinesterases and Monoamine Oxidases Inhibitors” (Molecules, 2025)
Entries after “also recorded” stand apart in the source; their conditions may differ. Read-outs that look alike come from different tables or passages of the source.

Legend:
hAChE = biological target: T1, hAChE (Homo sapiens, UniProt P22303); assay: biochemical; conditions: for IC50: human AChE, mean of three independent experiments ± SEM
T1 construct: purchased Sigma-Aldrich (Milan, Italy)
T1 sequence (P22303 32-614): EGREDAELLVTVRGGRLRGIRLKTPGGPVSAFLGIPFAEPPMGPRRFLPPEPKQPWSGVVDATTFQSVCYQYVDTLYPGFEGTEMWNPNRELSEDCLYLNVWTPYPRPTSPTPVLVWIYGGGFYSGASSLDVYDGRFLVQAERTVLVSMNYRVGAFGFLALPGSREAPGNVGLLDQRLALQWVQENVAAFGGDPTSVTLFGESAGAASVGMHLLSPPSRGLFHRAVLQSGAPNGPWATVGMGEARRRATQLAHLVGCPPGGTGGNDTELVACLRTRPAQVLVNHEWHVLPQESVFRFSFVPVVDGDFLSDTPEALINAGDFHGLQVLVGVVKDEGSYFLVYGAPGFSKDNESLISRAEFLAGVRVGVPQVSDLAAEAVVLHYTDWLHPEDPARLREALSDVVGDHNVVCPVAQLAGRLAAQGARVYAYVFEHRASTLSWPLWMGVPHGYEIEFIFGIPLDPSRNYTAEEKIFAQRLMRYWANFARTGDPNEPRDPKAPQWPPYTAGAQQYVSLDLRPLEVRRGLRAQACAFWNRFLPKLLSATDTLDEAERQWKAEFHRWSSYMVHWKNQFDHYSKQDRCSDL
Method: All human enzymes, substrates and reagents were from Sigma-Aldrich (Milan, Italy). Experiments were run in 96-well plates from Greiner Bio-One (Kremsmenster, Austria) with an Infinite M1000 Pro multiplate reader (Tecan, Cernusco sul Naviglio, Italy). The inhibition of ChEs was determined by following Ellman’s spectrophotometric assay in transparent, flat-bottom plates [18]. […] Incubations were performed in triplicate and results were expressed as the mean ± SEM from 3 independent experiments. The values of IC50 were calculated by nonlinear regressions using GraphPad Prism 5.00 (GraphPad Software, San Diego, CA, USA). […] Apparent inhibition constants and kinetic parameters were calculated within the “Enzyme kinetics” module of Prism.

hBChE = biological target: T2, hBChE (Homo sapiens, UniProt P06276); assay: biochemical; format: biochemical; conditions: for inhibition at 10 µM: human BChE, mean ± SEM; for inhibitory activity toward hBChE (in words): summary of Table 1
T2 construct: purchased Sigma-Aldrich (Milan, Italy)
T2 sequence (P06276 29-602): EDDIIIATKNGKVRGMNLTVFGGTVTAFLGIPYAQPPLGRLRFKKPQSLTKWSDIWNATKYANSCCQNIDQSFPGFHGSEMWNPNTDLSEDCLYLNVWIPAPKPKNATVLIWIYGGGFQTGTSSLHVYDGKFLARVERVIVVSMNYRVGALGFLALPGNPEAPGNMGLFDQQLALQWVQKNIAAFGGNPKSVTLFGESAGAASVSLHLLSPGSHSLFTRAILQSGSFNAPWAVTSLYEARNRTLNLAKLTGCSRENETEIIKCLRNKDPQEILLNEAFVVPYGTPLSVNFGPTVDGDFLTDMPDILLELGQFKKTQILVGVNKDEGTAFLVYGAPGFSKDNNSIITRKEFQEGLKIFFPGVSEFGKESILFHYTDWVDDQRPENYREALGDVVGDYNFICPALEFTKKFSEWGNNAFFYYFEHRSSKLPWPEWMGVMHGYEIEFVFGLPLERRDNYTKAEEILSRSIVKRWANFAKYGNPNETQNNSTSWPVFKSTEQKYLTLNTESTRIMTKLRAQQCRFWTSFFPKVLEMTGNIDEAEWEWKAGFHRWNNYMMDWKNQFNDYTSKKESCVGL
Method: All human enzymes, substrates and reagents were from Sigma-Aldrich (Milan, Italy). Experiments were run in 96-well plates from Greiner Bio-One (Kremsmenster, Austria) with an Infinite M1000 Pro multiplate reader (Tecan, Cernusco sul Naviglio, Italy). The inhibition of ChEs was determined by following Ellman’s spectrophotometric assay in transparent, flat-bottom plates [18]. […] Incubations were performed in triplicate and results were expressed as the mean ± SEM from 3 independent experiments. The values of IC50 were calculated by nonlinear regressions using GraphPad Prism 5.00 (GraphPad Software, San Diego, CA, USA).

hMAO A = biological target: T3, hMAO A (Homo sapiens, UniProt P21397); assay: Inhibition of human recombinant MAO A, spectrofluorimetric kynuramine assay; format: biochemical; conditions: for inhibition at 10 µM: read-out: % Inhibition at 10 μM hMAO A; for inhibition of MAO A activity (in words): summary of Table 1
T3 construct: purchased Sigma-Aldrich (Milan, Italy)
T3 sequence (P21397 1-527): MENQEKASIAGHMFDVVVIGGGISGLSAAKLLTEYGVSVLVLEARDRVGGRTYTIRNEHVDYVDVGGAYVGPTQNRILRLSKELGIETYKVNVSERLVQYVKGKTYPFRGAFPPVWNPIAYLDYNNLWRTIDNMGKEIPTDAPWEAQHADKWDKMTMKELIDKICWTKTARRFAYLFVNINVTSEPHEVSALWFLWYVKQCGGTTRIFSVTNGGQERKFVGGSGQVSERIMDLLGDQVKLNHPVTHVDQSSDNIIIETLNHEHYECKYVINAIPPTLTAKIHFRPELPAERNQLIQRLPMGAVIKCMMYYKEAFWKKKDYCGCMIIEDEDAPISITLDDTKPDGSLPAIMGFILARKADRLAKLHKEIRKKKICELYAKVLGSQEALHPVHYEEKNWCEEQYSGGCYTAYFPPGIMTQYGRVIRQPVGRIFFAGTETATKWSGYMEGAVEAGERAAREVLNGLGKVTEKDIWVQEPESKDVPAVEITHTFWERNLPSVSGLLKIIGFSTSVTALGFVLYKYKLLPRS
Method: (§1) All human enzymes, substrates and reagents were from Sigma-Aldrich (Milan, Italy). Experiments were run in 96-well plates from Greiner Bio-One (Kremsmenster, Austria) with an Infinite M1000 Pro multiplate reader (Tecan, Cernusco sul Naviglio, Italy). […] For studies addressing MAOs inhibition the spectrofluorimetric protocol was based on the oxidative deamination of kynuramine to 4-hydroxyquinoline measured in black, flat-bottom polystyrene plates [29]. Incubations were performed in triplicate and results were expressed as the mean ± SEM from 3 independent experiments. The values of IC50 were calculated by nonlinear regressions using GraphPad Prism 5.00 (GraphPad Software, San Diego, CA, USA).

hMAO B = biological target: T4, hMAO B (Homo sapiens, UniProt P27338); assay: Inhibition of human recombinant MAO B, spectrofluorimetric kynuramine assay; format: biochemical; conditions: for inhibition at 10 µM: read-out: % Inhibition at 10 μM hMAO B
T4 construct: purchased Sigma-Aldrich (Milan, Italy)
T4 sequence (P27338 1-520): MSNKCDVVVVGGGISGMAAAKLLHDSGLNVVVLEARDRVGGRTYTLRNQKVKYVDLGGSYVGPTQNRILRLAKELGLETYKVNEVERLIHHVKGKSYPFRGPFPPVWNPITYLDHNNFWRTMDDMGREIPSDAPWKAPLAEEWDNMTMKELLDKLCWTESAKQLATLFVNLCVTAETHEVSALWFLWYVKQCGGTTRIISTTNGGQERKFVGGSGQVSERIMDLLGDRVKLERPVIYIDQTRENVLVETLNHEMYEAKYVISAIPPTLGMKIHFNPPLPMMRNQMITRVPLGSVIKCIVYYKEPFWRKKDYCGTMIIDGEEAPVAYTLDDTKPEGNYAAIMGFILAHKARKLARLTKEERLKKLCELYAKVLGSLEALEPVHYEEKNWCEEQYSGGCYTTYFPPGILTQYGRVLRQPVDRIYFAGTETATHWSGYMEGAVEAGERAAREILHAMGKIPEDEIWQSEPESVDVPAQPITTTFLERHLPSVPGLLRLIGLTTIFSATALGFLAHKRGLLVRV
Method: as §1

[1] = Precipitation in the cell assay conditions; format: physicochemical; conditions: 20 μM, SH-SY5Y cell assay conditions
Method: The cell viability of human neuroblastoma SH-SY5Y cells was measured as previously reported in ref. [29]. […] Briefly, cells were plated at a concentration of 4.5 × 10^4 cells/well and cultured in Dulbecco’s modified Eagle’s medium (DMEM) high glucose supplemented with 10% (v/v) heat-inactivated fetal bovine serum (FBS), 2 mM L-glutamine, 100 U/mL penicillin, and 100 μg/mL streptomycin at 37 °C in an atmosphere of 5% CO2 in 96 wells/plate. […] Then, cells were incubated for 2 h at 37 °C and 5% CO2 with 0.5 mg/mL of MTT, and the formazan crystals in the cells were solubilized with absolute ethanol. […] Cell viability was expressed as a percentage of the negative control (CTRL), represented by untreated cells, which was set at 100%. Data are the mean ± SD from three independent experiments, each performed in triplicate and analyzed using GraphPad Prism 5.0 (GraphPad Software Inc., San Diego, CA, USA). Statistical significance was calculated using a one-way analysis of variance (ANOVA) followed by Dunnett’s multiple comparison test. Levels of significance refer to untreated cells: * p < 0.05.

[2] = human recombinant MAO A on Supersomes, 10 μM, mean ± SEM
[3] = human recombinant MAO B on Supersomes, 10 μM, mean ± SEM

With `Cc1ccc([C@@H]2c3c(c4ccccc4oc3=O)O[C@H]2c2ccccc2S(C)(=O)=O)cc1` [Compound 2a] the IC50 (hAChE) was 5.5 ± 0.7 µM, the inhibition at 10 µM (hBChE) was 27 ± 12% and the “inhibitory activity toward hBChE (in words)” value (hBChE) was “very low percentage of inhibition”. The inhibition at 10 µM (hMAO A) was 47 ± 3%, the inhibition at 10 µM (hMAO B) was 40 ± 8% and the “precipitation in the assay conditions at higher concentrations” value (from here on “precipitation in the assay conditions”) [1] was “precipitation”.

For `COc1ccc([C@@H]2c3c(c4ccccc4oc3=O)O[C@H]2c2ccccc2S(C)(=O)=O)cc1` [Compound 2b], the IC50 (hAChE) was 6.1 ± 0.3 µM, the inhibition at 10 µM (hBChE) was 29 ± 11% and the “inhibitory activity toward hBChE (in words)” value (hBChE) was “very low percentage of inhibition”. For the same molecule, the inhibition at 10 µM (hMAO A) was 45 ± 1%, the inhibition at 10 µM (hMAO B) was 39 ± 6% and the “precipitation in the assay conditions” value [1] was “precipitation”.

In the case of `CS(=O)(=O)c1ccccc1[C@@H]1Oc2c(c(=O)oc3ccccc23)[C@H]1c1ccc(Cl)cc1` [Compound 2c], the IC50 (hAChE) is reported as 4 ± 0.7 µM, the inhibition at 10 µM (hBChE) is reported as less than 5% and the “inhibitory activity toward hBChE (in words)” value (hBChE) is reported as “absence of inhibitory activities”. It also gave an inhibition at 10 µM (hMAO A) of 16 ± 14% and an inhibition at 10 µM (hMAO B) of 11 ± 6%.

In the case of `CS(=O)(=O)c1ccccc1[C@@H]1Oc2c(c(=O)oc3ccccc23)[C@H]1c1cccs1` [Compound 2d], the IC50 (hAChE) is reported as 4 ± 0.5 µM, the inhibition at 10 µM (hBChE) is reported as less than 5% and the “inhibitory activity toward hBChE (in words)” value (hBChE) is reported as “absence of inhibitory activities”. The inhibition at 10 µM (hMAO A) was 42 ± 4%, the inhibition at 10 µM (hMAO B) was 17 ± 10% and the “precipitation in the assay conditions” value [1] was “precipitation”.

With `Cc1ccc(-c2c(-c3ccccc3S(C)(=O)=O)oc3c2c(=O)oc2ccccc23)cc1` [Compound 3a] the IC50 (hAChE) was 4.4 ± 0.5 µM, the inhibition at 10 µM (hBChE) was less than 5% and the “inhibitory activity toward hBChE (in words)” value (hBChE) was “absence of inhibitory activities”. The inhibition at 10 µM (hMAO A; [2]) was less than 5%, the “inhibition of MAO A activity (in words)” value (hMAO A; 10 μM) was “inactive” and the inhibition at 10 µM (hMAO B; [3]) was 32%.

With `COc1ccc(-c2c(-c3ccccc3S(C)(=O)=O)oc3c2c(=O)oc2ccccc23)cc1` [Compound 3b] the IC50 (hAChE) was 5.7 ± 1 µM, the inhibition at 10 µM (hBChE) was 19 ± 9% and the “inhibitory activity toward hBChE (in words)” value (hBChE) was “very low percentage of inhibition”. For the same molecule, the inhibition at 10 µM (hMAO A; [2]) was less than 5%, the “inhibition of MAO A activity (in words)” value (hMAO A; 10 μM) was “inactive” and the inhibition at 10 µM (hMAO B; [3]) was 43 ± 1%.

For `CS(=O)(=O)c1ccccc1-c1oc2c(c1-c1cccs1)c(=O)oc1ccccc12` [Compound 3d], the “inhibition mechanism for AChE” value (hAChE; Lineweaver-Burk plots, inhibitor 0–15 μM) was “mixed-type or a non-competitive inhibition mechanism; also recorded: mixed-type kinetics; also recorded: mixed-type or non-competitive binding mode”, the Ki (hAChE; Lineweaver-Burk plots, inhibitor 0–15 μM, substrate S-acetylthiocholine 0.033 to 0.2 mM, read-out: Ki AChE) was 9.7 ± 0.6 µM and the IC50 (hAChE) was 4.1 ± 0.7 µM. The inhibition at 10 µM (hBChE) was 21 ± 3%, the “inhibitory activity toward hBChE (in words)” value (hBChE) was “very low percentage of inhibition” and the inhibition at 10 µM (hMAO A; [2]) was less than 5%. For the same molecule, the “inhibition of MAO A activity (in words)” value (hMAO A; 10 μM) was “no inhibition” and the IC50 (hMAO B) was 561 ± 85 nM.
